Source: patent publication US4870071A, “Prophylactic and therapeutic agnet for hepatic disorder” (Senju Pharmaceutical Co., Ltd., priority 1986, dated 1989)
Entries after “also recorded” stand apart in the source; their conditions may differ.

What was measured:
[1] = Transfer to plasma and plasma level duration after oral administration; format: in vivo, rabbits; settings: for Transfer to bloodstream on oral administration: rabbit, in vivo
Description: The sera separated from the blood samples were deproteinized with trichloroacetic acid and, then, free cysteine in the sera as well as cysteine resulting from hydrolysis following heating was determined by fluorescence labeling and high performance liquid chromatography (HPLC).

[2] = test system: acetaminophen-induced hepatic disorder; experiment: Effect on acetaminophen-induced hepatic disorder; format: in vivo, Male SD rats; settings: 500 mg/kg oral, 1 hour before acetaminophen, 24 hours
Description: In this experiment, cysteineglucuronolactone and cysteineglucuronic acid salts (CG groups) were tested for their effects on acetaminophen-induced hepatic disorder in terms of their ability to suppress elevations in serum GOT, GPT, LDH and ALP. […] In the control and normal groups, 10 ml/kg of 0.5% CMC was orally administered and, in the CG groups, 500 mg/10 ml/kg of the respective compound was orally administered. An hour later, 400 mg/15 ml/kg of acetaminophen was intraperitoneally administered to the control and CG groups while 15 ml/kg of physiological saline was intraperitoneally administered to the normal group.

[3] = test system: CCl4-induced acute hepatic disorder; experiment: Effect on CCl4-induced acute hepatic disorder, (A)-1 (time of pre-administration); format: in vivo, Wistar-strain male rats
Description: Wistar-strain male rats were used after fasting.
The hepatic disorder inducer CCl4 was intraperitoneally administered to each group in a dose of 0.08 ml/kg (diluted with olive oil so as to give a dose volume of 5 ml/kg) and, after about 18 hours, the blood was sampled for the assay of s-GOT and s-GPT.

[4] = Solubility of the calcium salt; format: physicochemical
[5] = test system: alcohol-induced hepatopathy; experiment: Effect on alcohol-induced hepatopathy (liver TG); format: in vivo, Male Wistar rats
Description: (§1) Male Wistar rats were used after fasting.
After 13 hours, 20% alcohol was orally administered at 5 g/kg. After 8 hours, the liver was removed and TG was determined by the acetylacetone method.

[6] = Acute oral toxicity test in mice (LD50); settings: mouse, in vivo
[7] = test system: CCl4-induced acute hepatic disorder; experiment: Effect on CCl4-induced acute hepatic disorder, (A)-2 (dose); format: in vivo, Male Wistar rats; settings: for s-GOT / s-GPT: 10 hours before CCl4
Description: Ten hours later, CCl4 was intraperitoneally administered in a dose of 0.08 ml/kg. About 18 hours thereafter, the blood was sampled for the assay of s-GOT and s-GPT.

mice = experiment: Acute toxicity in mice, intravenous injection (LD50)
Description: Acute toxicity of the compounds according
to the invention in terms of LD50
Referring to the above table, the injection No. 1 was adjusted to pH 7.0-7.2 by adding sodium carbonate after dissolution of the sample.

[8] = test system: galactosamine-induced hepatopathy; experiment: Effect on galactosamine-induced hepatopathy; format: in vivo, Male Wistar rats
Description: Galactosamine-induced hepatopathy is caused by inhibition of glycoprotein and protein metabolisms and has been used as an experimental model since it pathologically resembles viral hepatitis.
as §1
Fifteen (15) hours later, a second administration was performed in the same dose. […] Twenty-four (24) hours thereafter, blood samples were collected for the assay of s-GOT and s-GPT.

[9] = test system: CCl4-induced chronic hepatic disorder; experiment: Effect on CCl4-induced chronic hepatic disorder; format: in vivo, Male SD rats; settings: for Pathological examination of the liver: H.E. staining, compared with control group
Description: Male SD rats were used in two groups, namely the control group and the CGCa group.
CCl4 was dissolved in olive oil in a concentration of 10% (w/v) and the solution was intraperitoneally administered in a dose of 5 ml/kg twice a week (Tuesday and Friday) for 10 weeks. Three days after the last CCl4 administration, blood samples were collected in each group for the assay of s-GOT, s-GPT, etc. Assay of liver hydroxyproline (HyP) and pathological examination of the liver following H.E. staining were also performed.

hepatic disorder models = experiment: Hepatic disorder models, overall statement; format: in vivo; settings: oral
[10] = test system: carbon tetrachloride-induced hepatic disorder; experiment: Further experiments with CGL and CGNa: suppression of s-GOT and s-GPT after CCl4; format: in vivo, rats; settings: 2.0 g/kg oral 1 hour earlier than CCl4 0.08 ml/kg i.p.; versus control group
Description: In further experiments in which cysteineglucuronolactone (CGL) and sodium cysteineglucuronate (CGNa) were respectively administered orally in a dose of 2.0 g/kg 1 hour earlier than intraperitoneal administration of 0.08 ml/kg of CCl4, the percent suppressions of s-GOT and s-GPT obtained as compared with the control group were as shown below.

[11] = CGCa I group, 2.0 g/kg oral 12 hours before CCl4
[12] = CGCa II group, 2.0 g/kg oral 10 hours before CCl4
[13] = CGCa III group, 2.0 g/kg oral 8 hours before CCl4
[14] = CGCa IV group, 2.0 g/kg oral 6 hours before CCl4
[15] = CGCa V group, 2.0 g/kg oral 4 hours before CCl4
[16] = 2.0 g/kg oral twice, galactosamine hydrochloride 400 mg/kg i.p., 24 hours
[17] = 5% CGCa in diet, CCl4 twice a week for 10 weeks

With O=C(O)C1CSC(C(O)C(O)C(O)C(O)C(=O)O)N1 (stereo not shown) [CGCa, Calcium cysteineglucuronate] the “Lapse of time until free cysteine content in plasma began to increase” value ([1]; rabbits, oral 500 mg/kg) was 2 h, the “Free cysteine content in plasma after 24 hours” value ([1]; rabbits, oral 500 mg/kg, 24 hours) was “at a normal value” and the “Duration of increased blood cysteine levels compared with equimolar cysteine” value ([1]; rabbits, oral, versus equimolar amount of cysteine) was “increased blood cysteine levels can be maintained for a prolonged period”. The ALP [2] was 11.4 ± 1.52 BL (BesseyLowry) units, the LDH [2] was 705.1 ± 283.3 Wroblewski units and the s-GOT [2] was 284.2 ± 136.3 Karmen units. The s-GPT [2] was 121.7 ± 33.7 Karmen units, the “CCl4-induced increase of s-GPT (in words)” value ([3]; 10 or 12 hours earlier administration, p<0.05) was “significantly suppressed” and the s-GOT [3, 11] was 1134.9 ± 361.57 Karmen units. For the same molecule, the s-GPT [3, 11] was 310.5 ± 68.08 Karmen units, the s-GOT [3, 12] was 921.6 ± 198.34 Karmen units and the s-GPT [3, 12] was 308.5 ± 42.30 Karmen units. It also gave a s-GOT [3, 13] of 929.0 ± 201.14 Karmen units, a s-GPT [3, 13] of 328.2 ± 105.72 Karmen units and a s-GOT [3, 14] of 1493.3 ± 480.60 Karmen units. The s-GPT [3, 14] was 502.4 ± 210.66 Karmen units, the s-GOT [3, 15] was 1453.0 ± 515.58 Karmen units and the s-GPT [3, 15] was 516.3 ± 166.50 Karmen units. For the same molecule, the “CCl4-induced increase of s-GOT (in words)” value ([3]; administered 8 to 10 hours earlier than CCl4, p<0.05) was “significantly suppressed (p<0.05)”, the “Solubility (in words)” value [4] was “low solubility” and the “Liver TG” value ([5]; 2.0 g/kg oral 13 hours before 20% alcohol 5 g/kg, 8 hours after alcohol) was 4.4 ± 1.29 mg/g liver. The “increase of liver TG level due to alcohol (in words)” value ([5]; oral, p<0.05) was “significantly suppressed this increase (p<0.05)”, the LD50 [6] was 7500 mg/kg and the “increase in s-GOT” value ([7]; 1.43 g/kg) was “tendency toward suppression”. For the same molecule, the “increase of s-GPT (in words)” value ([7]; 1.43 g/kg, p<0.05) was “significantly suppressed”, the “increase in s-GOT” value ([7]; 2.0 g/kg, p<0.05) was “significantly suppressed (p<0.05)” and the “increase in s-GPT (in words)” value ([7]; 2.0 g/kg, p<0.05) was “significantly suppressed (p<0.05)”. It also gave a s-GOT ([7]; CGCa I group, 1.02 g/kg oral) of 1755.6 ± 784.49 Karmen units, a s-GPT ([7]; CGCa I group, 1.02 g/kg oral) of 427.2 ± 131.72 Karmen units and a s-GOT ([7]; CGCa II group, 1.43 g/kg oral) of 1192.0 ± 264.07 Karmen units. For the same molecule, the s-GPT ([7]; CGCa II group, 1.43 g/kg oral) was 309.5 ± 86.25 Karmen units, the s-GOT ([7]; CGCa III group, 2.0 g/kg oral) was 1106.2 ± 224.53 Karmen units and the s-GPT ([7]; CGCa III group, 2.0 g/kg oral) was 299.9 ± 79.85 Karmen units. The “Acute toxicity (in words)” value (mice) was “somewhat increased toxicity”, the s-GOT [8, 16] was 1643.1 ± 480.43 Karmen units and the s-GPT [8, 16] was 702.3 ± 223.08 Karmen units. For the same molecule, the “elevation of s-GOT (in words)” value ([8]; oral, p<0.05) was “inhibited the elevations significantly (p<0.05)”, the “elevation of s-GPT (in words)” value ([8]; oral, p<0.05) was “inhibited the elevations significantly (p<0.05)” and the “elevation of LDH (in words)” value ([9]; 0.05<p<0.10) was “tended to suppress”. For the same molecule, the ALP [9, 17] was 59.5 ± 23.83 King-Armstrong units, the Albumin [9, 17] was 3.4 ± 0.28 g/dL and the Cholinesterase [9, 17] was 0.014 ± 5.16 × 10^-3 ΔpH. For the same molecule, the LDH [9, 17] was 491.7 ± 312.24 Wroblewski units, the “Liver HyP” value [9, 17] was 371.6 ± 93.05 µg/g and the Serum iron [9, 17] was 215.0 ± 39.01 µg/dL. For the same molecule, the Total bilirubin [9, 17] was 0.35 ± 0.108 mg/dL, the s-GOT [9, 17] was 358.9 ± 157.13 Karmen units and the s-GPT [9, 17] was 130.3 ± 53.56 Karmen units. The γ-GTP [9, 17] was 3.0 ± 1.50 mU/ml, the “Pathological examination of the liver” value [9] was “although vacuolar degeneration was found, the original lobular structure of the liver was preserved without evidence of hepatocirrhosis, such as formation of pseudolobules; also recorded: Necrosis was scattered and cellular infiltration was slight as compared with the control group; also recorded: effective against the damage and fibrosis of hepatocytes” and the “Pathological examination of the liver” value ([9]; listed as CGC2) was “suppression of the fibrosis”. For the same molecule, the “elevation of hydroxyproline (HyP) (in words)” value ([9]; liver, p<0.05) was “significantly suppressed”, the “elevation of s-GOT (in words)” value ([9]; p<0.05) was “significantly suppressed” and the “elevation of s-GPT (in words)” value ([9]; p<0.05) was “significantly suppressed”.
With O=C(O)C1CSC(C(O)C2OC(=O)C(O)C2O)N1 (stereo not shown) [CGL, Cysteineglucuronolactone] the “depression of GOT (in words)” value (hepatic disorder models) was “significant depressions”, the “depression of GPT (in words)” value (hepatic disorder models) was “significant depressions” and the “Transfer to bloodstream on oral administration” value [1] was “translocated into the bloodstream”. The ALP [2] was 10.7 ± 1.04 BL (BesseyLowry) units, the LDH [2] was 540.3 ± 238.1 Wroblewski units and the s-GOT [2] was 185.0 ± 83.3 Karmen units. For the same molecule, the s-GPT [2] was 85.5 ± 22.7 Karmen units, the “Suppression of s-GOT” value [10] was 35.0% and the “Suppression of s-GPT” value [10] was 34.8%.
For O=C(O)C1CSC(C(O)C(O)C(O)C(O)C(=O)O)N1 (stereo not shown) [CGMg, Magnesium cysteineglucuronate], the ALP [2] was 12.8 ± 1.20 BL (BesseyLowry) units, the LDH [2] was 857.5 ± 296.1 Wroblewski units and the s-GOT [2] was 386.3 ± 88.1 Karmen units. It also gave a s-GPT [2] of 141.9 ± 27.5 Karmen units.
With O=C(O)C1CSC(C(O)C(O)C(O)C(O)C(=O)O)N1 (stereo not shown) [CGNa, Sodium cysteineglucuronate] the ALP [2] was 10.4 ± 1.22 BL (BesseyLowry) units, the LDH [2] was 557.2 ± 240.7 Wroblewski units and the s-GOT [2] was 180.1 ± 63.0 Karmen units. The s-GPT [2] was 78.4 ± 13.7 Karmen units, the “Suppression of s-GOT” value [10] was 37.2% and the “Suppression of s-GPT” value [10] was 39.3%.
With O=C(O)C1CSC(C(O)C(O)C(O)C(O)C(=O)O)N1 (stereo not shown) [cysteineglucuronic acid, Cysteineglucuronic acid] the “depression of GOT (in words)” value (hepatic disorder models) was “significant depressions”, the “depression of GPT (in words)” value (hepatic disorder models) was “significant depressions” and the “Transfer to bloodstream on oral administration” value [1] was “translocated into the bloodstream”.
